Assays:
Test in all cases: relative viability (nuclei count vs DMSO), 5 days (fraction); higher = more cells survive
FH535 + Trametinib = compound: CC1=C(C=CC(=C1)[N+](=O)[O-])NS(=O)(=O)C2=C(C=CC(=C2)Cl)Cl [FH535] + CC(=O)Nc1cccc(-n2c(=O)n(C3CC3)c(=O)c3c(Nc4ccc(I)cc4F)n(C)c(=O)c(C)c32)c1 [Trametinib] (partner 0.02 µM)
Method in brief: (§1)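 Lung cancer cell lines were seeded in 1536-well plates and dosed by pin tool the next day, with either a single drug or a fixed anchor-drug dose combined with five library-drug doses (not always all listed) spaced in √10 steps. Five days later, one step fixed the cells and stained their nuclei (final 0.05% Triton X-100, 1% formaldehyde, 1 ug/ml Hoechst), and nuclei were counted on 4× images. Relative viability is the nuclei count in treated wells divided by the count in vehicle wells, and each value is the median of duplicate plates.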

FH535 + Navitoclax = compound: CC1=C(C=CC(=C1)[N+](=O)[O-])NS(=O)(=O)C2=C(C=CC(=C2)Cl)Cl [FH535] + CC1(C)CCC(c2ccc(Cl)cc2)=C(CN2CCN(c3ccc(C(=O)NS(=O)(=O)c4ccc(N[C@H](CCN5CCOCC5)CSc5ccccc5)c(S(=O)(=O)C(F)(F)F)c4)cc3)CC2)C1 [Navitoclax] (partner 0.5 µM)
Method in brief: as §1

FH535 + Luminespib = compound: CC1=C(C=CC(=C1)[N+](=O)[O-])NS(=O)(=O)C2=C(C=CC(=C2)Cl)Cl [FH535] + CCNC(=O)c1noc(-c2cc(C(C)C)c(O)cc2O)c1-c1ccc(CN2CCOCC2)cc1 [Luminespib] (partner 0.01 µM)
Method in brief: as §1

FH535 + AZD7762 = compound: CC1=C(C=CC(=C1)[N+](=O)[O-])NS(=O)(=O)C2=C(C=CC(=C2)Cl)Cl [FH535] + NC(=O)Nc1cc(-c2cccc(F)c2)sc1C(=O)N[C@H]1CCCNC1 [AZD7762] (partner 0.2 µM)
Method in brief: as §1

FH535 + Decitabine = compound: CC1=C(C=CC(=C1)[N+](=O)[O-])NS(=O)(=O)C2=C(C=CC(=C2)Cl)Cl [FH535] + Nc1ncn([C@H]2C[C@H](O)[C@@H](CO)O2)c(=O)n1 [Decitabine] (partner 2 µM)
Method in brief: as §1

Cell Line | relative viability (FH535 + Trametinib; first compound 0.04 µM) | relative viability (FH535 + Trametinib; first compound 0.1265 µM) | relative viability (FH535 + Trametinib; first compound 0.4 µM) | relative viability (FH535 + Trametinib; first compound 1.265 µM) | relative viability (FH535 + Navitoclax; first compound 0.04 µM) | relative viability (FH535 + Navitoclax; first compound 0.1265 µM) | relative viability (FH535 + Navitoclax; first compound 0.4 µM) | relative viability (FH535 + Navitoclax; first compound 1.265 µM) | relative viability (FH535 + Luminespib; first compound 0.04 µM) | relative viability (FH535 + Luminespib; first compound 0.1265 µM) | relative viability (FH535 + Luminespib; first compound 0.4 µM) | relative viability (FH535 + Luminespib; first compound 1.265 µM) | relative viability (FH535 + AZD7762; first compound 0.04 µM) | relative viability (FH535 + AZD7762; first compound 0.1265 µM) | relative viability (FH535 + AZD7762; first compound 0.4 µM) | relative viability (FH535 + AZD7762; first compound 1.265 µM) | relative viability (FH535 + Decitabine; first compound 0.04 µM) | relative viability (FH535 + Decitabine; first compound 0.1265 µM) | relative viability (FH535 + Decitabine; first compound 0.4 µM) | relative viability (FH535 + Decitabine; first compound 1.265 µM)
201T | 0.718 | 0.72 | 0.69 | 0.562 | 1.2 | 1.19 | 1.18 | 1.16 | 1.04 | 1.03 | 1.03 | 0.735 | 0.594 | 0.728 | 0.62 | 0.696 | 0.824 | 0.842 | 0.872 | 0.652
A-427 | 0.712 | 0.752 | 0.675 | 0.61 | 0.968 | 0.928 | 0.839 | 0.865 | 0.778 | 1.19 | 0.885 | 0.703 | 0.768 | 0.795 | 0.768 | 0.622 | 0.545 | 0.593 | 0.549 | 0.576
BEN | 0.931 | 0.99 | 0.948 | 0.666 | 0.0691 | 0.0603 | 0.0578 | 0.0625 | 0.211 | 0.466 | 0.285 | 0.119 | 0.6 | 0.691 | 0.496 | 0.507 | 0.676 | 0.703 | 0.573 | 0.498
CAL-12T | 0.336 | 0.438 | 0.367 | 0.347 | 1.16 | 1.11 | 1.12 | 0.654 | 0.331 | 0.496 | 0.727 | 0.536 | 0.594 | 0.643 | 0.536 | 0.397 |  |  |  | 
ChaGo-K-1 | 0.871 | 0.896 | 0.742 | 0.503 | 0.96 | 1.35 | 1.04 | 0.636 | 0.653 | 0.665 | 0.55 | 0.576 | 0.797 | 0.927 | 0.771 | 0.729 | 0.496 | 0.517 | 0.54 | 0.377
EKVX | 0.319 | 0.391 | 0.292 | 0.293 | 0.976 | 0.849 | 0.924 | 0.789 | 0.876 | 0.935 | 0.859 | 0.764 | 0.77 | 0.661 | 0.631 | 0.559 | 0.373 | 0.413 | 0.331 | 0.27
EMC-BAC-2 | 0.804 | 0.9 | 0.869 | 0.892 | 1.17 | 1.19 | 1.2 | 1.02 | 1.21 | 1.23 | 1.12 | 1.04 | 0.828 | 1.06 | 1.04 | 0.985 | 0.885 | 1 | 0.985 | 0.892
EPLC-272H | 0.272 | 0.296 | 0.299 | 0.262 | 1.04 | 1.22 | 1.07 | 0.926 | 0.277 | 0.357 | 0.505 | 0.197 | 0.241 | 0.226 | 0.259 | 0.206 | 0.328 | 0.4 | 0.412 | 0.377
H3255 | 0.563 | 0.604 | 0.582 | 0.55 | 0.514 | 0.338 | 0.416 | 0.26 | 0.849 | 0.892 | 0.911 | 0.44 | 0.806 | 0.918 | 0.853 | 0.788 | 0.541 | 0.625 | 0.63 | 0.456
HARA | 0.759 | 0.711 | 0.643 | 0.461 | 1.14 | 1.17 | 1.15 | 0.931 | 0.52 | 0.869 | 0.726 | 0.446 | 0.19 | 0.426 | 0.305 | 0.358 | 0.578 | 0.475 | 0.552 | 0.414
HCC-15 | 0.288 | 0.358 | 0.406 | 0.316 | 0.624 | 0.739 | 0.613 | 0.482 | 0.287 | 0.302 | 0.255 | 0.302 | 1.18 | 1.21 | 1.06 | 1.13 | 0.58 | 0.58 | 0.604 | 0.451
HCC-44 | 1.06 | 0.986 | 1.03 | 0.967 | 1.06 | 1.04 | 0.911 | 0.74 | 1.09 | 1.16 | 1.02 | 0.575 | 1 | 0.961 | 0.898 | 0.866 | 0.896 | 0.938 | 0.845 | 0.835
HCC-78 | 0.694 | 0.713 | 0.602 | 0.665 | 0.612 | 1.04 | 0.782 | 0.718 |  |  |  |  | 0.644 | 0.888 | 0.618 | 0.468 | 0.541 | 0.673 | 0.573 | 0.529
HCC-366 | 0.379 | 0.387 | 0.274 | 0.34 | 0.942 | 1.08 | 0.995 | 0.976 |  |  |  |  | 0.244 | 0.289 | 0.307 | 0.247 | 0.308 | 0.342 | 0.335 | 0.293
HCC-827 | 0.504 | 0.545 | 0.538 | 0.42 | 0.994 | 1.08 | 0.973 | 0.732 | 0.676 | 0.794 | 0.682 | 0.336 | 0.203 | 0.205 | 0.278 | 0.221 | 0.297 | 0.334 | 0.323 | 0.296
HOP-62 | 0.374 | 0.373 | 0.391 | 0.355 | 0.997 | 1.08 | 0.916 | 0.779 | 0.695 | 0.98 | 0.831 | 0.707 | 0.473 | 0.66 | 0.416 | 0.55 | 0.232 | 0.196 | 0.23 | 0.227

Source: the supplement of paper PMC10307832
